What was measured:
Test in all cases: Antimicrobial screening by agar dilution
Format in all cases: cell-based
Settings in all cases: after 10, 20, 40 and 60 minutes at all dilutions 1:100, 1:200, 1:400, 1:800
Pseudomonas aeruginosa = tested on: Pseudomonas aeruginosa
Procedure: (§1) The antibacterial properties of the synthesized compound 9-(2-hydroxypyridin-3-yl)-10-(2-hydroxyethyl)-3,3,6,6-tetramethyl-3,4,6,7,9,10-hexahydroacridine1,8(2H,5H)-dione were studied by the method of agar dilution. Test solutions of each compound was prepared in concentration of 1% using dimethylformamide as a solvent then they are diluted in physiological solution to obtain the final experimental dilutions 1:100, 1:200, 1:400, 1:800. The effect of these substances are compared with furacillin in a controllable study. The testing microbes used were gram positive bacteria Staphylococcus aureus, gram negative bacteria Pseudomonas aeruginosa and Escherichia coli and Candida albicans fungus. The experiments used for this survey were meat-pentonlu agar (EPA) for cultivation of bacteria and Saburo environment for the fungus. Each experiment used 1 mL of test solution on each plate […]. Two drops of emulsified with microbes feel were added. All experimental samples were taken from the agar after 10, 20, 40, 60 minutes in the environment on the basis of Patrk planted. The bacteria were cultivated at a temperature of 37° C. for 1 day and the mushroom was kept in a thermostat for […] at a temperature of 28° C. Then results were checked.

Candida albicans = tested on: Candida albicans
Procedure: as §1

Staphylococcus aureus = tested on: Staphylococcus aureus
Procedure: as §1

Escherichia coli = tested on: Escherichia coli
Procedure: as §1

Measured: inhibition activity

CC1(C)CC(=O)C2=C(C1)N(CCO)C1=C(C(=O)CC(C)(C)C1)C2c1cccnc1O [9-(2-hydroxypyridin-3-yl)-10-(2-hydroxyethyl)-3,3,6,6-tetramethyl-3,4,6,7,9,10-hexahydroacridine1,8(2H,5H)-dione]
highest inhibition activity: all assays above

Reference: patent publication US12129241B1, “9-(2-hydroxypyridin-3-yl)-10-(2-hydroxyethyl)-3,3,6,6-tetramethyl-3,4,6,7,9,10-hexahydroacridine1,8(2H,5H)-dione as an antimicrobial compound” (KING FAISAL UNIVERSITY, priority 2023, dated 2024)
